Experimental data reported in patent US20220008392A1, “METHODS OF TREATING CANCER” (ASTRAZENECA AB, priority 2018, published 2022).

Tests used:
[1] = tested on: lymphoma cell lines; assay: 6-hour caspase activation assay (Caspase-Glo 3/7) in 33 lymphoma cell line panel; type: cell-based; conditions: for Emax: 6 hour compound incubation, cell lines highlighted in FIG. 1B, read-out: caspase maximum effect
Experimental: Method: 33 diffuse large B-cell (DLBCL) and Mantle cell (MCL) lymphoma cell lines were seeded onto 384 well plates pre-dosed with 10-point, ½ log titrations of AZD4573 or AZD5991, and incubated for 6 hours. Following the incubation cleaved caspase was measured using Caspase-Glo 3/7 (Promega) following the manufacturer's protocol. Data was analyzed using GeneData Screener and Spotfire.
Method: Cell lysates from 33 lymphoma cell lines were generated in parallel to evaluate protein expression of pro-survival Bcl2 family members. Cell lysates were normalized for protein concentration using the BCA Protein Assay Kit, and western blots were run according to standard protocols. A positive cell line control for expression of Bfl-1, TMD8, was utilized for normalization to other cell lines in the panel. AZD4573 and AZD5991 respective median and geomean caspase EC50's were calculated from cell lines clustered based on high and low Bfl-1 expression, respectively.

[2] = tested on: OCILY10 and TMD8 cell lines; assay: Caspase-Glo 3/7 activation after Bfl-1 siRNA knockdown; type: cell-based; conditions: 6 hours
Experimental: Method: OCILY10 and TMD8 cells were grown in logarithmic phase and plated in serum-free siRNA delivery media at 1×10^6 cells/mL in 12-well plates (Dharmacon B-005000). An siRNA SMARTpool targeting Bfl-1 or a scrambled negative control (NTC) were added to respective wells for 24 hours at 0.1 or 0.5 μM (Dharmacon Bcl2a1-597, NTC-D-001910-01). 2 mL of cell culture media was added to all transfected wells and transferred into a 6-well plate for an additional 48 hours. Transfected cells were collected to assess Bfl-1 protein knockdown and cleaved caspase-3 by western blot. Transfected cells were also seeded onto 384 well plates pre-dosed with an 8-point titration of AZD4573 or AZD5991 and incubated for 6 hours. The plates were measured for activation of cleaved caspase using Caspase-Glo 3/7 (Promega) following the manufacturer's protocol.

[3] = tested on: pSer2-RNAP2; assay: Western blot of proximal CDK9 biomarker in OCILY10 cells treated with AZD4573; type: cell-based
Experimental: (§1) Method: The ABC-DLBCL cell line OCILY10 was treated for 6 h with a 9 pt, ½ log dose response of AZD4573 and cells were harvested for protein lysates. These cells were also treated with AZD4573 at 100 nM for varying timepoints out to 6 hours. At each timepoint (0, 0.5, 1, 2, 4, 6 hours) cells were harvested for either mRNA isolation, or protein lysates, respectively. mRNA was converted to cDNA and PCR sequence amplification was performed with Mcl1 and Bcl2a1 primers following standard protocols. Protein lysates were normalized for protein concentration using the BCA Protein Assay Kit, and run for western blots according to standard protocols. To ensure expected target engagement was achieved, the blots were probed for the proximal biomarker for CDK9 (pSer2-RNAPolII), along with Mcl-1 and Bfl-1. To gauge the time to induction of apoptosis, cleaved caspase-3 was assessed. A loading control (vinculin) was also utilized for normalization.

[4] = tested on: Mcl-1 and Bfl-1; assay: Mcl-1 and Bfl-1 mRNA (PCR) and Bcl2 family protein (western blot) modulation in OCILY10 cells; type: cell-based
Experimental: as §1

[5] = tested on: OCILY10 cells; assay: Cleaved caspase-3 induction over time in OCILY10 cells; type: cell-based; conditions: 100 nM AZD4573
Experimental: as §1

[6] = tested on: OCILY10 xenograft; assay: OCILY10 ABC-DLBCL xenograft efficacy; type: in vivo, C.B.-17 SCID female mice
Experimental: (§2) Method: AZD4573 was formulated in dimethylacetamide (DMA)/polyethylene glycol 400 (PEG 400)/1% w/v Tween 80 solution 2/30/68 and dosed at 15 mg/kg, intraperitoneally (ip), BID with a 2 hour split on days 1 and 2 with a 5 day dose holiday.
(§3) AZD5991 was formulated for intravenous use in 30% HPBCD (hydroxy-propyl-beta-cyclodextrin) in water-for-injection adjusted to pH 9.0-9.5 up to a concentration of 20 mg/mL (based on parent form). AZD5991 was dosed at 60 mg/kg by tail-vain intravenous injection once weekly.
(§4) 5×10^6 OCILy10 tumor cells or 10×10^6 TMD8 tumor cells were injected subcutaneously in the right flank of C.B.-17 SCID female mice in a volume of 0.1 mL containing 50% matrigel.
(§5) Tumor volumes (measured by caliper), animal body weight, and tumor condition were recorded twice weekly for the duration of the studies. The tumor volume was calculated using the formula: length (mm)×width (mm)^2×0.52. For efficacy studies, growth inhibition from the start of treatment was assessed by comparison of the differences in tumor volume between control and treated groups. Dosing began when mean tumor size reached approximately 150-180 mm^3. CR=complete response.

[7] = tested on: TMD8 xenograft; assay: TMD8 ABC-DLBCL xenograft efficacy; type: in vivo, C.B.-17 SCID female mice
Experimental: as §2, §3, §4, §5

[8] = 15 mg/kg ip BID with 2 hour split on days 1 and 2, 5 day dose holiday

| SMILES | Emax [1] | maximum level of apoptosis (cleaved caspase) ([2]; OCILY10 and TMD8, Bfl-1 siRNA knockdown cells) | maximum level of apoptosis (cleaved caspase) ([2]; average of OCILY10 and TMD8, without Bfl-1 knockdown) | geometric mean caspase EC50 difference between AZD5991 and AZD4573 ([1]; Bfl-1 expressing cell lines (n=8)) | geometric mean caspase EC50 difference between AZD5991 and AZD4573 ([1]; cell lines with no expression of Bfl-1 (n=25)) | Expression of pSer2-RNAP2 inhibited ([3]; 100 nM AZD4573, 30 minutes after dosing) | pSer2-RNAP2 inhibition ([3]; 6 h, serial dilutions of AZD4573) | time by which Mcl1 and Bfl1 mRNA expression were reduced to equivalent levels ([4]; 100 nM AZD4573) | time of reductions in Mcl-1 and Bfl-1 protein ([4]; 100 nM AZD4573) | expression of longer lived proteins Bcl2, Bcl-xL and Bcl-W ([4]; after 6 h treatment with AZD4573) | reductions in Mcl-1 and Bfl-1 protein ([4]; at concentrations that inhibited pSer2-RNAP2) | time at which cleaved caspase was detected [5] | TGI [6, 8] | anti-tumor response ([6]; OCILY10 xenograft, AZD4573 treatment) | TGI [7, 8] | anti-tumor response ([7]; TMD8 xenograft, AZD4573 treatment) |
| --- | --- | --- | --- | --- | --- | --- | --- | --- | --- | --- | --- | --- | --- | --- | --- | --- |
| Cc1c2c(nn1C)CSCc1cc(n(C)n1)CSc1cc(c3ccccc3c1)OCCCc1c(C(=O)O)n(C)c3c-2c(Cl)ccc13 (atropisomer, axis not shown) [AZD5991] | < 50% | over 90% | 45% |  |  |  |  |  |  |  |  |  |  |  |  |  |
| CC(=O)N[C@@H]1CCC[C@H](C(=O)Nc2cc(-c3cnn4c3CC(C)(C)C4)c(Cl)cn2)C1 [AZD4573, (1S,3R)-3-acetamido-N-(5-chloro-4-(5,5-dimethyl-5,6-dihydro-4H-pyrrolo [1,2-b]pyrazol-3-yl)pyridin-2-yl)cyclohexanecarboxamide] | > 50% |  |  | 22 fold | 4 fold | > 80% | inhibited in a dose-dependent manner | ≤ 2 h | 4 h | relatively unchanged | Equipotent reductions | 6 h | 198% | complete tumor regressions | 184% | complete tumor regressions |
